Measured values as given in patent US20070049593A1 (priority 2004, published 2007).
Where a name gives a salt, the structure may show the parent alone.

What follows are compounds tested against T1, HCV polymerase (Hepatitis C virus genotype 1b, UniProt P26663) (assay: biochemical).
T1 construct: a region encoding NS5B (J Virol 1991 March, 65(3), 1105-13, 544 amino acids after deletion of 47 amino acids on the C-terminal); 6xHis (C); made in house; host or cells: Escherichia coli
Design: species or system HCV BK strain
In short: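 His-tagged NS5B (BK strain, 47-aa C-terminal deletion, E. coli-expressed) at 0.5 μg/ml copied 5 μg/ml run-off RNA bearing the HCV 3′ UTR with 2 μM UTP plus [3H]UTP, 50 μM ATP/GTP, in pH 7.5 Tris with 5 mM MgCl2, 25 °C, 90 min. TCA-precipitated RNA was counted and IC50 calculated.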

T1 sequence (P26663 2420-2963): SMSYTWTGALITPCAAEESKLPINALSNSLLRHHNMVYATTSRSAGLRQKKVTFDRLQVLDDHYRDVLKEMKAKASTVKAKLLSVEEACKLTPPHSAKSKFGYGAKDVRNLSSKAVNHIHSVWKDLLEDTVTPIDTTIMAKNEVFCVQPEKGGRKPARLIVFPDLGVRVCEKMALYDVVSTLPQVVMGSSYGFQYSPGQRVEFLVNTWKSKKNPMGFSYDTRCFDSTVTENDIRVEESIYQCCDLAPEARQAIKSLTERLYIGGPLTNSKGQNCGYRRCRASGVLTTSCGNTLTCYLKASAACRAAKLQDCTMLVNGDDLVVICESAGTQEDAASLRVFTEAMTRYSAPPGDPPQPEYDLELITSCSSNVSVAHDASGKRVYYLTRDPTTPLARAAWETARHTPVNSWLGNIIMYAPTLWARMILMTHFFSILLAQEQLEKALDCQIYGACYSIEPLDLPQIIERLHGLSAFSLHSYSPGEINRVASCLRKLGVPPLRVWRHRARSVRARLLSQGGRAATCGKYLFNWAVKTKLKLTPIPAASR

CN(C)C(=O)CNc1cccc2c1OCCn1c-2c(C2CCCCC2)c2ccc(C(=O)O)cc21 [Example 2-176, 12-cyclohexyl-4-(dimethylcarbamoylmethylamino)-6,7-dihydro-5-oxa-7a-azadibenzo[a,e]azulene-9-carboxylic acid] and O=C(O)c1ccc2c(C3CCCCC3)c3n(c2c1)CCOc1c(NCCN2CCCCC2)cccc1-3 [Example 2-478, 12-cyclohexyl-4-[2-(piperidin-1-yl)ethylamino]-6,7-dihydro-5-oxa-7a-azadibenzo[a,e]azulene-9-carboxylic acid dihydrochloride] cannot be ordered by IC50: < 100 nM for the first, < 100 nM for the second.

CCC(CC)N1CCCC(CCN2CCn3c(c(C4CCCCC4)c4ccc(C(=O)O)cc43)-c3ccc(Cl)cc32)C1 (stereo not drawn) [Example 1-386, 3-chloro-13-cyclohexyl-5-{2-[1-(1-ethylpropyl)piperidin-3-yl]ethyl}-6,7-dihydro-5H-benzo[5,6][1,4]diazepino[7,1-a]indole-10-carboxylic acid dihydrochloride] and O=C(O)c1ccc2c(C3CCCCC3)c3n(c2c1)CCN(CCN1CCCC1)c1cc(Cl)ccc1-3 [Example 1-216, 3-chloro-13-cyclohexyl-5-[2-(pyrrolidin-1-yl)ethyl]-6,7-dihydro-5H-benzo[5,6][1,4]diazepino[7,1-a]indole-10-carboxylic acid dihydrochloride] cannot be ordered by IC50: < 100 nM for the first, < 100 nM for the second.

O=C(O)c1ccc2c(C3CCCCC3)c3n(c2c1)CC(=O)N(CC(=O)N1CCOCC1)c1ccccc1-3 [Example 1-210, 13-cyclohexyl-5-[2-(morpholin-4-yl)-2-oxoethyl]-6-oxo-6,7-dihydro-5H-benzo[5,6][1,4]diazepino[7,1-a]indole-10-carboxylic acid] and COc1ccc2c(c1)N(CC(=O)N1CCOCC1)CCn1c-2c(C2CCCCC2)c2ccc(C(=O)O)cc21 [Example 1-64, 13-cyclohexyl-3-methoxy-5-[2-(morpholin-4-yl)-2-oxoethyl]-6,7-dihydro-5H-benzo[5,6][1,4]diazepino[7,1-a]indole-10-carboxylic acid monohydrochloride] cannot be ordered by IC50: < 100 nM for the first, < 100 nM for the second.

First: CC(C)(CN)NC(=O)c1ccc2c(C3CCCCC3)c3n(c2c1)CCOc1ccccc1-3 [Example 2-186, N-(2-amino-1,1-dimethylethyl)-12-cyclohexyl-6,7-dihydro-5-oxa-7a-azadibenzo[a,e]azulene-9-carboxamide monohydrochloride]
Second: CC(C)(NC(=O)c1ccc2c(C3CCCCC3)c3n(c2c1)CCOc1ccccc1-3)c1nc2ccccc2n1CCO [Example 2-351, N-{1-[1-(2-hydroxyethyl)-1H-benzimidazol-2-yl]-1-methylethyl}-12-cyclohexyl-6,7-dihydro-5-oxa-7a-azadibenzo[a,e]azulene-9-carboxamide]
The IC50 of the first is higher: 100 to 1000 nM for the first, < 100 nM for the second.

C[C@@H]1CCC[C@H](C)N1CCN1CCn2c(c(C3CCCCC3)c3ccc(C(=O)O)cc32)-c2ccccc21 [Example 1-193, 13-cyclohexyl-5-[2-((2S,6R)-2,6-dimethylpiperidin-1-yl)ethyl]-6,7-dihydro-5H-benzo[5,6][1,4]diazepino[7,1-a]indole-10-carboxylic acid dihydrochloride] and CN(CCN1CCn2c(c(C3CCCCC3)c3ccc(C(=O)O)cc32)-c2ccccc21)C1CCOC1 (stereo not drawn) [Example 1-321, 13-cyclohexyl-5-{2-[N-methyl-N-(tetrahydrofuran-3-yl)amino]ethyl}-6,7-dihydro-5H-benzo[5,6][1,4]diazepino[7,1-a]indole-10-carboxylic acid] cannot be ordered by IC50: < 100 nM for the first, < 100 nM for the second.

CC(C)(C)OC(=O)N1CCC(OCCOc2cccc3c2OCCn2c-3c(C3CCCCC3)c3ccc(C(=O)O)cc32)CC1 [Example 2-465, 4-[2-(1-tert-butoxycarbonylpiperidin-4-yloxy)ethoxy]-12-cyclohexyl-6,7-dihydro-5-oxa-7a-azadibenzo[a,e]azulene-9-carboxylic acid] and CCC1CCN(C(=O)CN2CCn3c(c(C4CCCCC4)c4ccc(C(=O)O)cc43)-c3ccccc32)CC1 [Example 1-71, 13-cyclohexyl-5-[2-(4-ethylpiperidin-1-yl)-2-oxoethyl]-6,7-dihydro-5H-benzo[5,6][1,4]diazepino[7,1-a]indole-10-carboxylic acid monohydrochloride] cannot be ordered by IC50: < 100 nM for the first, < 100 nM for the second.

COc1ccc2c(c1)OCCn1c-2c(C2CCCCC2)c2ccc(C(=O)N[C@H](C#N)Cc3ccc(O)cc3)cc21 [Example 2-441, N—[(S)-cyano-(4-hydroxybenzyl)-methyl]-12-cyclohexyl-3-methoxy-6,7-dihydro-5-oxa-7a-azadibenzo[a,e]azulene-9-carboxamide] and COC(=O)[C@H](CCc1ccc(O)cc1)NC(=O)c1ccc2c(C3CCCCC3)c3n(c2c1)CCOc1cc(OC)ccc1-3 [Example 2-366, methyl (S)-2-[(12-cyclohexyl-3-methoxy-6,7-dihydro-5-oxa-7a-azadibenzo[a,e]azulene-9-carbonyl)amino]-4-(4-hydroxyphenyl)butyrate] cannot be ordered by IC50: < 100 nM for the first, < 100 nM for the second.

COCCO[C@@H]1CCCN(CCN2CCn3c(c(C4CCCCC4)c4ccc(C(=O)O)cc43)-c3ccc(C)cc32)C1 [Example 1-547, 13-cyclohexyl-5-{2-[(R)-3-(2-methoxyethoxy)piperidin-1-yl]ethyl}-3-methyl-6,7-dihydro-5H-benzo[5,6][1,4]diazepino[7,1-a]indole-10-carboxylic acid dihydrochloride] and CCOCC1CCCN(CCN2CCn3c(c(C4CCCCC4)c4ccc(C(=O)O)cc43)-c3ccc(C)cc32)C1 (stereo not drawn) [Example 1-392, 13-cyclohexyl-5-[2-(3-ethoxymethylpiperidin-1-yl)ethyl]-3-methyl-6,7-dihydro-5H-benzo[5,6][1,4]diazepino[7,1-a]indole-10-carboxylic acid dihydrochloride] cannot be ordered by IC50: < 100 nM for the first, < 100 nM for the second.

CN1CCC(NC(=O)c2ccc3c(C4CCCCC4)c4n(c3c2)CCOc2ccccc2-4)(C(=O)Nc2ccc(/C=C/C(=O)O)cc2)CC1 [Example 2-223, (E)-3-[4-({4-[(12-cyclohexyl-6,7-dihydro-5-oxa-7a-azadibenzo[a,e]azulene-9-carbonyl)amino]-1-methylpiperidine-4-carbonyl]amino)phenyl]acrylic acid] and CSc1ccc2c(c1)N(C)CCn1c-2c(C2CCCCC2)c2ccc(C(=O)NC3(C(=O)Nc4ccc(/C=C/C(=O)O)cc4)CCC3)cc21 [Example 1-450, (E)-3-[4-({1-[(13-cyclohexyl-5-methyl-3-methylsulfanyl-6,7-dihydro-5H-benzo[5,6][1,4]diazepino[7,1-a]indole-10-carbonyl)amino]cyclobutanecarbonyl}amino)phenyl]acrylic acid] cannot be ordered by IC50: < 100 nM for the first, < 100 nM for the second.

First: Cc1ccc2c(c1)N(C)C(C)Cn1c-2c(C2CCCCC2)c2ccc(C(=O)O)cc21 (stereo not drawn) [Example 1-567, 13-cyclohexyl-3,5,6-trimethyl-6,7-dihydro-5H-benzo[5,6][1,4]diazepino[7,1-a]indole-10-carboxylic acid]
Second: Cc1ccc2c(c1)N(C)CCn1c-2c(C2CCCCC2)c2ccc(S(N)(=O)=O)cc21 [Example 1-517, 13-cyclohexyl-3,5-dimethyl-6,7-dihydro-5H-benzo[5,6][1,4]diazepino[7,1-a]indole-10-sulfonamide]
The IC50 of the first is lower: < 100 nM for the first, 100 to 1000 nM for the second. The first is the more potent here.

CCCN(CCN1CCCCC1)c1cccc2c1OCCn1c-2c(C2CCCCC2)c2ccc(C(N)=O)cc21 [Example 2-300, 12-cyclohexyl-4-{N-[2-(piperidin-1-yl)ethyl]-N-propylamino}-6,7-dihydro-5-oxa-7a-azadibenzo[a,e]azulene-9-carboxamide] and Cc1ccc2c(c1)N(CCN1CCCC(O)CC1)CCn1c-2c(C2CCCCC2)c2ccc(C(=O)O)cc21 (stereo not drawn) [Example 1-538, 13-cyclohexyl-5-[2-(4-hydroxyazepan-1-yl)ethyl]-3-methyl-6,7-dihydro-5H-benzo[5,6][1,4]diazepino[7,1-a]indole-10-carboxylic acid dihydrochloride] cannot be ordered by IC50: < 100 nM for the first, < 100 nM for the second.

O=C(O)c1ccc2c(C3CCCCC3)c3n(c2c1)CCN(CC(=O)N1CC=CCC1)c1ccccc1-3 [Example 1-136, 13-cyclohexyl-5-[2-(3,6-dihydro-2H-pyridin-1-yl)-2-oxoethyl]-6,7-dihydro-5H-benzo[5,6][1,4]diazepino[7,1-a]indole-10-carboxylic acid] and CCC1CCCN(CCN2CCn3c(c(C4CCCCC4)c4ccc(C(=O)O)cc43)-c3ccc(OCc4ccccc4)cc32)C1 (stereo not drawn) [Example 1-348, 3-benzyloxy-13-cyclohexyl-5-[2-(3-ethylpiperidin-1-yl)ethyl]-6,7-dihydro-5H-benzo[5,6][1,4]diazepino[7,1-a]indole-10-carboxylic acid dihydrochloride] cannot be ordered by IC50: < 100 nM for the first, < 100 nM for the second.

COc1cccc(COc2ccc3c(c2)N(CCN(C)C)CCn2c-3c(C3CCCCC3)c3ccc(C(=O)O)cc32)c1 [Example 1-577, 13-cyclohexyl-5-(2-dimethylaminoethyl)-3-(3-methoxybenzyloxy)-6,7-dihydro-5H-benzo[5,6][1,4]diazepino[7,1-a]indole-10-carboxylic acid dihydrochloride] and Cc1cc(COc2ccc3c(c2)OCCn2c-3c(C3CCCCC3)c3ccc(C(=O)O)cc32)no1 [Example 2-32, 12-cyclohexyl-3-(5-methylisoxazol-3-ylmethoxy)-6,7-dihydro-5-oxa-7a-azadibenzo[a,e]azulene-9-carboxylic acid] cannot be ordered by IC50: < 100 nM for the first, < 100 nM for the second.

In the case of CNC(=O)/C=C/c1ccc(NC(=O)C2(NC(=O)c3ccc4c(C5CCCCC5)c5n(c4c3)CCOc3cc(OC)ccc3-5)CCC2)cc1 [Example 2-544, N-{1-[4-((E)-2-methylcarbamoylvinyl)phenylcarbamoyl]cyclobutyl}-12-cyclohexyl-3-methoxy-6,7-dihydro-5-oxa-7a-azadibenzo[a,e]azulene-9-carboxamide], the IC50 is reported as < 100 nM.
